# Values quoted from earlier work in patent publication US20160038452A1, “Methods for Administering a Depot of Disulfiram” (priority 2014, published 2016).
# Assays:
# [1] = deep intramuscular injection, compared with patients on oral disulfiram
smiles,measurement,setting,value
CCN(CC)C(=S)SSC(=S)N(CC)CC [disulfiram],half-life of disulfiram in blood,,4 min
same,urinary levels of disulfiram metabolites,[1],insignificant
